Data as given in ChEMBL document CHEMBL4706646, “Synthesis and evaluation of a collection of purine-like C-nucleosides as antikinetoplastid agents” (Eur J Med Chem, 2021).

Legend:
[1] = test system: Trypanosoma brucei rhodesiense; assay: Antitrypanosomal activity against Trypanosoma brucei rhodesiense; type: functional, organism-based
[2] = test system: Trypanosoma cruzi; assay: Antitrypanosomal activity against Trypanosoma cruzi infected in human MRC-5 SV2 cells; type: functional, organism-based
[3] = Cytotoxicity against mouse primary macrophages assessed as reduction in cell viability; type: cell-based, Macrophage
[4] = test system: Trypanosoma brucei brucei; assay: Antitrypanosomal activity against Trypanosoma brucei brucei; type: functional, organism-based
[5] = test system: Leishmania infantum; assay: Antileishmanial activity against Leishmania infantum infected in mouse primary macrophages; type: functional, organism-based; conditions: Primary macrophage
[6] = Cytotoxicity against human MRC-5 SV2 cells assessed as reduction in cell viability; type: cell-based

Row | Compound | IC50 [1] [µM] | IC50 [2] [µM] | CC50 [3] [µM] | IC50 [4] [µM] | IC50 [5] [µM] | CC50 [6] [µM]
1 | Nc1ncnn2c([C@@H]3O[C@H](CO)[C@@H](O)[C@H]3O)ccc12 | < 0.25 | < 0.25 | < 0.25 | < 0.25 | < 0.25 | < 0.25
2 | Nc1ncnn2c([C@@H]3O[C@H](CO)[C@@H](O)[C@H]3O)cc(-c3ccc(Cl)cc3)c12 | 3.71 | 0.54 | 5 | 3.89 | 236 | 10.8
3 | O=c1[nH]cnn2c([C@@H]3O[C@H](CO)[C@@H](O)[C@H]3O)cnc12 | 3.01 | 0.6 | > 64 | 0.5 | 3.17 | > 64
4 | Nc1ncnn2c([C@@H]3O[C@H](CO)[C@@H](O)[C@H]3O)cc(Br)c12 | 0.14 | 0.78 | 2 | 1.69 | 1.13 | ≥ 11.8
5 | Nc1nccn2c([C@@H]3O[C@H](CO)[C@@H](O)[C@H]3O)cnc12 | 0.81 | > 64 | > 64 | > 64 | > 64 | > 64
6 | Nc1ncnc2c([C@@H]3O[C@H](CO)[C@@H](O)[C@H]3O)cn(-c3ccc(Cl)c(F)c3)c12 | 29 | 1.04 | > 64 | 40.3 | > 64 | > 64
7 | N#C[C@]1(c2ccc3c(N)ncnn23)O[C@H](CO)[C@@H](O)[C@H]1O | 1.77 | > 64 | > 64 | 10.3 | > 64 | > 64
8 | N#C[C@@]1(c2cc(Br)c3c(N)ncnn23)O[C@H](CO)[C@@H](O)[C@H]1O | 1.58 | 39.3 | 32 | 13 | 32.5 | 11
9 | Nc1ncnc2c([C@@H]3O[C@H](CO)[C@@H](O)[C@H]3O)cnn12 | 33.8 | 3.81 | > 64 | 24.8 | 21.9 | 9.32
10 | O=c1[nH]cnn2c([C@@H]3O[C@H](CO)[C@@H](O)[C@H]3O)cc(Br)c12 | 20 | > 64 | > 64 | 30.9 | > 64 | > 64
11 | Nc1ncnn2c([C@@H]3O[C@H](CO)C[C@H]3O)cc(-c3ccc(Cl)cc3)c12 | 1.65 | 0.23 | 24 | 3.53 | 23.3 | ≥ 22.3
12 | Nc1ncnn2c([C@@H]3O[C@H](CO)[C@@H](O)[C@H]3O)cc(-c3ccc(Cl)c(F)c3)c12 | 5.98 | 2.45 | > 64 | 6.78 | ≥ 40.3 | ≥ 40.3
13 | O=c1[nH]cnn2c([C@@H]3O[C@H](CO)[C@@H](O)[C@H]3O)ccc12 | 7.06 | 7.67 | > 64 | 3.53 | 5.66 | 49.4
14 | O=c1[nH]cnn2c([C@@H]3O[C@H](CO)C[C@H]3O)ccc12 | 33.8 | > 64 | > 64 | > 64 | > 64 | > 64
15 | Nc1ncnc2c([C@@H]3O[C@H](CO)[C@@H](O)[C@H]3O)cn(-c3ccc(Br)cc3)c12 | 28.9 | 0.46 | > 64 | 41.8 | ≥ 50.8 | > 64
16 | Nc1ncnn2c([C@@H]3O[C@H](CO)[C@@H](O)[C@H]3O)cnc12 | 2 | 0.62 | 32 | < 0.25 | 5.15 | 1.41
17 | Nc1ncnc2c([C@@H]3O[C@H](CO)[C@@H](O)[C@H]3O)cn(-c3ccc(Cl)cc3)c12 | 26.2 | 0.34 | > 64 | 26.9 | > 64 | > 64
18 | Nc1nccn2c([C@@H]3O[C@H](CO)C[C@H]3O)cnc12 | 55.7 | > 64 | > 64 | > 64 | > 64 | > 64
19 | OC[C@H]1O[C@@H](c2cnn3c(O)ncnc23)[C@H](O)[C@@H]1O | 36.7 | 10.1 | > 64 | 17.2 | 34.2 | > 64
20 | O=C(Cn1ccnc1[N+](=O)[O-])NCc1ccccc1 [BENZNIDAZOLE] | – | 2.02 | – | – | – | –
21 | N#C[C@@]1(c2ccc3c(N)ncnn23)O[C@H](CO)[C@@H](O)[C@H]1O [GS-441524] | 0.58 | > 64 | > 64 | 8.91 | > 64 | > 64
22 | CCCCCCCCCCCCCCCCOP(=O)([O-])OCC[N+](C)(C)C [MILTEFOSINE] | – | – | – | – | 7.47 | –
23 | Cc1ccc(C(=O)Nc2ccc(S(=O)(=O)O)c3cc(S(=O)(=O)O)cc(S(=O)(=O)O)c23)cc1NC(=O)c1cccc(NC(=O)Nc2cccc(C(=O)Nc3cc(C(=O)Nc4ccc(S(=O)(=O)O)c5cc(S(=O)(=O)O)cc(S(=O)(=O)O)c45)ccc3C)c2)c1 [SURAMIN] | 0.04 | – | – | – | – | –
